For one experiment, the system named is dividing A375 cells. As to the kind of experiment: Peptide efficacy in culture (MTS), dividing cells. In kind it is cell-based, human. The following applies: peptide replenished daily for two days, MTS, best fit polynomial, read-out: IC50^div, concentration to kill 50% of dividing cells. Here is the method:
Cell lines were treated with chemotherapy, doxorubicin (Sigma, Cat. No. 2252) to induce senescence (200 nM for HCT116, 100 nM for B16-F10 and MCF7, 50 nM for SW480 and DLD-1, 40 nM for A375-Luc/iRFP and MCF10a). MCF7 cells were treated with CDK4/6 inhibitor, palbociclib (Selleck Chemicals: S1116) to induce senescence (5 µM). A375 cells were treated with Braf inhibitor, Dabrafenib (Selleck Chemicals: S2807), to induce senescence (10 µM). Peptide efficacy experiments were performed by seeding 10,000 – 20,000 cells in a 96-well plate. The cells were given doxorubicin twice to make the cells senescent. After removal of doxorubicin, the plate was treated with varying concentrations of peptide. The peptide was replenished daily for two days. Cellular proliferation was quantified using the Promega CellTiter 96™ AQueous One Solution Cell Proliferation Assay (MTS) after 2 hours according to the manufacturer's protocol (Promega, G3581). To control for the charge of ES2, ProteoJuice (Millipore Sigma, 71281) was used to deliver ES2 using the manufacturers protocol, except 50 µL of 2 mM ES2 was mixed with 25 µL of ProteoJuice. Varying concentrations of the mixture were administered to A375 cells along with a control of only ProteoJuice.

The target of another experiment is T1, FOXO4 (Homo sapiens, UniProt P98177).
T1 construct: purchased OriGene Technologies TP760655
In words: Bio-layer Interferometry, FOXO4. The format is binding. As to the method: Bio-layer Interferometry (BLI) measurements were performed on a ForteBio Octet RED384 instrument (Molecular Devices) using ForteBio Data Acquisition software 9.0 and ForteBio biosensors (Molecular Devices) according to the manufacturer's instructions. Kinetic assays were carried out at 30°C using settings of Standard Kinetics Acquisition rate (5.0 Hz, averaging by 20) at a sample plate shake speed of 1,000 rpm. Streptavidin sensors (SA) (ForteBio) equilibrated in PBS were mock loaded (no ligand reference sensor) or loaded with 50 nM of N- terminal biotinylated ES2 peptide (New England Peptide, Inc.) with an approximate response of 1 nm. Ligand loaded SA sensors equilibrated in Kinetics buffer (ForteBio) to establish a baseline, were dipped into wells containing 2-fold dilutions of TP53 (Millipore Sigma Aldrich; Cat# 23-034), FOXO4 (OriGene Technologies; Cat# TP760655) or GFP analytes in kinetics buffer, or buffer alone (reference sample). Increasing concentrations of analytes ranging from 6.2 - 200 nM were allowed to associate for 240 secs, followed by 600 sec dissociation step where the TP53/FOXO4-bound sensors were washed with kinetics buffer. Binding curves were analysed using ForteBio Data Analysis HT 10.0 evaluation software. To control for background signal and non-specific binding, raw experimental data were processed by subtracting reference biosensor and reference sample (no ligand). Processed data from at least six different concentrations of analyte binding were globally fit to a 1:1 Langmuir binding model to calculate the association rate constant ka, the dissociation rate constant kd to achieve R^2 > 0.90. Equilibrium dissociation constants KD which defines the strength of the interaction or affinity was calculated as the kinetic dissociation rate constant divided by the kinetic association rate constant.

Experiment [1] has as its system PMAIP1 (NOXA) and BBC3 (PUMA). In words: ddPCR of TP53 target genes. The format is cell-based, human. Here is the method: Primers and probes were designed specifically for ddPCR for human BBC3 (Bio-Rad Cat# 10031255, Assay ID dHsaCPE5034069) and PMAIP1(Bio-Rad Cat# 10031252, Assay ID dHsa5037552) genes. RNA was extracted using the Qiagen RNeasy Kit (Cat# 74004). 5 ng of RNA was used for 22 µl PCR reaction mixtures using the One-Step RT-ddPCR Advanced Kit for Probes (Bio-Rad Cat# 1864022) following the manufacturer's protocol. ddPCR droplets were generated using the Bio-Rad Automated Droplet Generator. Plate containing ddPCR droplets was sealed and RT-PCR was performed using the C-1000 Thermal Cycler (Bio-Rad). ddPCR was performed in the QX200 Droplet Digital PCR System (Bio-Rad). Analysis of the ddPCR data was performed using QX200 analysis software.

As a reminder, the Kd is the concentration at which binding is half-saturated.

Where two headings read alike, the source gives them in different places. Where no end group is shown, it is not given here.

T1 sequence (P98177 whole entry): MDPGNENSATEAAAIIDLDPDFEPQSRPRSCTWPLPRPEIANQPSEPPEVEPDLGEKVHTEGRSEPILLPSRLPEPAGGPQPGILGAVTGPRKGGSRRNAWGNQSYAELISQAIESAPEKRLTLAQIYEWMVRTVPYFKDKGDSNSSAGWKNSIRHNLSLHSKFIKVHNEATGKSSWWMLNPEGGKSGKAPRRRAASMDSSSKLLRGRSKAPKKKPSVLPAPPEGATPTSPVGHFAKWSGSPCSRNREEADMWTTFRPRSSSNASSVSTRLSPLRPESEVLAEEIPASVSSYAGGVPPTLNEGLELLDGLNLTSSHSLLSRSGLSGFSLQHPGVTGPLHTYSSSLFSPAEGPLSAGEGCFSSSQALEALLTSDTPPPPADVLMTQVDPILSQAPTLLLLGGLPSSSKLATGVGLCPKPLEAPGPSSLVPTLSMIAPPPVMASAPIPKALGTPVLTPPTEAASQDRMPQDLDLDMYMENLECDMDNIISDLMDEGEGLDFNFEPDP

Take “PRKGGRRRRAWGRRRRRRRRRRRRRRAPRKRLTLA [ES2]”: in the experiment on dividing A375 cells, the IC50 was approximately 17 µM. For the same sequence, the “affinity for FOXO4 compared to TP53” value at FOXO4 (BLI KD ratio) is given as “approximately 4 fold”. In addition, the kon was determined as 117000 M⁻¹ s⁻¹ at FOXO4 (BLI, 1:1 Langmuir binding model, read-out: association rate ka) and 120000 M⁻¹ s⁻¹ on FOXO4 (BLI, biotinylated ES2 immobilized on streptavidin sensors, analyte 6.25-200 nM, 30°C, global 1:1 Langmuir fit, read-out: ka). Also, the kd on FOXO4 (BLI, biotinylated ES2 immobilized on streptavidin sensors, analyte 6.25-200 nM, 30°C, global 1:1 Langmuir fit) was 7.7e-05 ± 7.2e-07 s⁻¹. On FOXO4 (BLI, biotinylated ES2 immobilized on streptavidin sensors, analyte 6.25-200 nM, 30°C, kd/ka), the Kd came out at 0.66 ± 0.01 nM. The “NOXA and PUMA levels in senescent cells” value in experiment [1] (30 minutes after ES2 treatment, n=6, p<0.001) is “significant increase in levels”. In experiment [1] (dividing cells), the “NOXA and PUMA levels in dividing cells” value is “no response”.

The values are drawn from PMC8546421, “Molecular modelling of the FOXO4-TP53 interaction to design senolytic peptides for the elimination of senescent cancer cells” (EBioMedicine, 2021).
